Experimental data: ChEMBL document CHEMBL5050855, “Mettl16 inhibitors and uses thereof” (2021)
One block for each compound: values may come before it. Active and inactive are the calls of the source. No cut-off for these calls is given here.

Assays:
NOMO-1 = assay: Antiproliferative activity against human NOMO-1 cells after 72 hrs by MTT assay; format: functional, cell-based; conditions: NOMO-1, 72 h
[1] = Antiproliferative activity against human MA9.3RAS cells after 72 hrs by MTT assay; format: functional, cell-based
U-937 [2] = assay: Antiproliferative activity against human U-937 cells after 72 hrs by MTT assay; format: functional, cell-based; conditions: U-937, 72 h
[3] = Antiproliferative activity against human MA9.3ITD cells after 72 hrs by MTT assay; format: functional, cell-based
MA9.3RAS = assay: Inhibition of METTL16 in human MA9.3RAS cells at 10 to 20 nM assessed as increase in global m6A levels measured after 48 hrs; format: cell-based; conditions: dose 10-20 nM
HL-60 = assay: Antiproliferative activity against human HL-60 cells after 72 hrs by MTT assay; format: functional, cell-based; conditions: HL-60, 72 h
CA46 = assay: Antiproliferative activity against human CA46 cells after 72 hrs by MTT assay; format: functional, cell-based; conditions: CA46, 72 h
U-937 [4] = assay: Binding affinity towards METTL16 in human U-937 cells at 0.1 to 500 uM and measured by drug affinity responsive target stability (DARTS) assay; format: cell-based; conditions: dose 0.1-500 µM
HEL = assay: Antiproliferative activity against human HEL cells after 72 hrs by MTT assay; format: functional, cell-based
Kasumi 1 [5] = assay: Inhibition of METTL16 in human Kasumi 1 cells at 10 to 20 nM assessed as increase in global m6A levels measured after 48 hrs; format: cell-based; conditions: dose 10-20 nM
HeLa = assay: Antiproliferative activity against human HeLa cells after 72 hrs by MTT assay; format: functional, cell-based
COLO357 = assay: Antiproliferative activity against human COLO357 cells after 72 hrs by MTT assay; format: functional, cell-based; conditions: COLO357, 72 h
U-937 [6] = assay: Binding affinity towards METTL16 in human U-937 cells at 0.1 to 500 uM and measured by cellular thermal shift assay (CETSA); format: cell-based; conditions: dose 0.1-500 µM
LN-229 = assay: Antiproliferative activity against human LN-229 cells after 72 hrs by MTT assay; format: functional, cell-based; conditions: LN-229, 72 h
DG-75 = assay: Antiproliferative activity against human DG-75 cells after 72 hrs by MTT assay; format: functional, cell-based; conditions: DG-75, 72 h
Kasumi 1 [7] = assay: Antiproliferative activity against human Kasumi 1 cells after 72 hrs by MTT assay; format: functional, cell-based; conditions: Kasumi 1, 72 h
SUP-B15 = assay: Antiproliferative activity against human SUP-B15 cells after 72 hrs by MTT assay; format: functional, cell-based; conditions: SUP-B15, 72 h
A 172 = assay: Antiproliferative activity against human A-172 cells after 72 hrs by MTT assay; format: functional, cell-based; conditions: A 172, 72 h
RS4-11 = assay: Antiproliferative activity against human RS4-11 cells after 72 hrs by MTT assay; format: functional, cell-based; conditions: RS4-11, 72 h
U-87 MG = assay: Antiproliferative activity against human U-87 MG cells after 72 hrs by MTT assay; format: functional, cell-based, U-87MG ATCC
U-937 [8] = assay: Inhibition of METTL16 in human U-937 cells at 10 to 20 nM assessed as increase in global m6A levels measured after 48 hrs; format: cell-based; conditions: dose 10-20 nM
MONO-MAC-6 = assay: Antiproliferative activity against human MONO-MAC-6 cells after 72 hrs by MTT assay; format: functional, cell-based; conditions: MONO-MAC-6, 72 h
T98G = assay: Antiproliferative activity against human T98G cells after 72 hrs by MTT assay; format: functional, cell-based

IC50 (U-937 [2]): 36 nM
SMILES: Nc1ccc(CO)c(Cn2ccc3c4c(N)nc(N)nc4ccc32)c1
IC50 (NOMO-1): 55 nM | IC50 [1]: 70 nM | IC50 [3]: 54 nM

IC50 (U-937 [2]): 23 nM
SMILES: Nc1ccc(Cn2ccc3c4c(N)nc(N)nc4ccc32)c(CO)c1
IC50 [1]: 45 nM | IC50 [3]: 47 nM

IC50 (U-937 [2]): 9.63 nM | IC50 (HL-60): 32.6 nM | IC50 (HeLa): 64 nM | IC50 (COLO357): 1030 nM | IC50 (RS4-11): 37 nM | IC50 (U-87 MG): 20900 nM
SMILES: Nc1ccc(Cn2ccc3c4c(N)nc(N)nc4ccc32)cc1
inhibition (MA9.3RAS): Active | IC50 [1]: 16.1 nM | IC50 [3]: 15.7 nM | IC50 (CA46): 109 nM | Activity (U-937 [4]): Active | IC50 (HEL): 15.4 nM | inhibition (Kasumi 1 [5]): Active | Activity (U-937 [6]): Active | IC50 (LN-229): 558 nM | IC50 (DG-75): 44 nM | IC50 (Kasumi 1 [7]): 13 nM | IC50 (SUP-B15): 13 nM | IC50 (A 172): 682 nM | inhibition (U-937 [8]): Active | IC50 (MONO-MAC-6): 28 nM | IC50 (T98G): 10800 nM
